From ChEMBL document CHEMBL5241137, “Evaluation of carboxylic acid-derivatized corroles as novel gram-positive antibacterial agents under non-photodynamic inactivation conditions” (2023)
Values after ≈ are worked out from the molar mass of the structure shown.

Tests used:
[1] = tested on: Staphylococcus aureus; test: Antibacterial activity against methicillin-resistant Staphylococcus aureus […] assessed as reduction in bacterial growth measured under non-photodynamic inactivation condition; assay type: functional; conditions: light or radiation study
[2] = tested on: Staphylococcus aureus; test: Antibacterial activity against methicillin-sensitive Staphylococcus aureus ATCC 29213 assessed as reduction in bacterial growth measured under non-photodynamic inactivation condition; assay type: functional; conditions: ATCC 29213, light or radiation study

SMILES | MIC [1] [µg/mL] | MIC [2] [µg/mL]
CO[C@@]1(NC(=O)Cc2cccs2)C(=O)N2C(C(=O)O)=C(COC(N)=O)CS[C@@H]21 [CEFOXITIN] | 25 (≈ 58.5 µM) | 3.12 (≈ 7.3 µM)
Cc1ccc(-c2c3nc(c(-c4cc(C(=O)O)cc(C(=O)O)c4)c4ccc([nH]4)c4ccc([nH]4)c(-c4cc(C(=O)O)cc(C(=O)O)c4)c4ccc2[nH]4)C=C3)cc1 | 12.5 (≈ 17.4 µM) | 12.5 (≈ 17.4 µM)
O=S(=O)(O)CCNc1c(F)c(F)c(-c2c3nc(c(-c4c(F)c(F)c(NCCS(=O)(=O)O)c(F)c4F)c4ccc([nH]4)c4ccc([nH]4)c(-c4c(F)c(F)c(NCCS(=O)(=O)O)c(F)c4F)c4ccc2[nH]4)C=C3)c(F)c1F | 100 (≈ 89.9 µM) | > 100
O=C(O)c1ccc(C(c2ccc[nH]2)c2ccc[nH]2)cc1 | 50 (≈ 188 µM) | 50 (≈ 188 µM)
Cc1c(C(=O)O)[nH]c(C(c2ccccc2)c2[nH]c(C(=O)O)c(C)c2C)c1C | 50 (≈ 136 µM) | 100 (≈ 273 µM)
O=C(O)c1ccc(-c2c3nc(c(-c4ccc(C(=O)O)cc4)c4ccc([nH]4)c4ccc([nH]4)c(-c4ccc(C(=O)O)cc4)c4ccc2[nH]4)C=C3)cc1 | 100 (≈ 152 µM) | 100 (≈ 152 µM)
CN[C@H](CC(C)C)C(=O)N[C@H]1C(=O)N[C@@H](CC(N)=O)C(=O)N[C@H]2C(=O)N[C@H]3C(=O)N[C@H](C(=O)N[C@H](C(=O)O)c4cc(O)cc(O)c4-c4cc3ccc4O)[C@H](O)c3ccc(c(Cl)c3)Oc3cc2cc(c3O[C@@H]2O[C@H](CO)[C@@H](O)[C@H](O)[C@H]2O[C@H]2C[C@](C)(N)[C@H](O)[C@H](C)O2)Oc2ccc(cc2Cl)[C@H]1O [VANCOMYCIN] | 0.39 (≈ 0.269 µM) | 0.39 (≈ 0.269 µM)
Cc1ccc(-c2c3nc(c(-c4ccc(C(=O)O)cc4)c4ccc([nH]4)c(-c4ccc(C)cc4)c4ccc([nH]4)c4ccc2[nH]4)C=C3)cc1 | 100 (≈ 167 µM) | 100 (≈ 167 µM)
Fc1cc(F)c(F)c(-c2c3nc(c(-c4c(F)c(F)c(F)c(F)c4F)c4ccc([nH]4)c(-c4c(F)c(F)cc(F)c4F)c4ccc([nH]4)c4ccc2[nH]4)C=C3)c1F | 12.5 (≈ 16.4 µM) | 25 (≈ 32.9 µM)
